What all share (test): relative viability (nuclei count vs DMSO), 5 days (fraction); higher = more cells survive
Compound in the test “BGJ398 + AZD7762”: CCN1CCN(c2ccc(Nc3cc(N(C)C(=O)Nc4c(Cl)c(OC)cc(OC)c4Cl)ncn3)cc2)CC1 [BGJ398] + NC(=O)Nc1cc(-c2cccc(F)c2)sc1C(=O)N[C@H]1CCCNC1 [AZD7762] (partner 0.2 µM)
A digest of the protocol:
(§1)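 Cells from lung cancer lines were seeded into 1536-well plates and, one day later, dosed by pin tool. Treatments were either a single drug or a fixed dose of an anchor drug with five library-drug doses (not always all listed) in √10 steps. After 5 days, nuclei were stained in a one-step fixation (final 0.05% Triton X-100, 1% formaldehyde, 1 ug/ml Hoechst) and counted on 4× images, and relative viability is the treated-to-vehicle nuclei ratio, as the median of duplicate plates.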

Compound in test [1]: C1=CC2=NC=CN=C2C=C1/C=C/3\C(=O)NC(=O)S3 + C[C@@H](Oc1cc(-c2cnn(C3CCNCC3)c2)cnc1N)c1c(Cl)ccc(F)c1Cl [Crizotinib] (partner 1 µM)
Summed up:
as §1

Compound in the test “BGJ398 + Bortezomib”: CCN1CCN(c2ccc(Nc3cc(N(C)C(=O)Nc4c(Cl)c(OC)cc(OC)c4Cl)ncn3)cc2)CC1 [BGJ398] + CC(C)C[C@H](NC(=O)[C@H](Cc1ccccc1)NC(=O)c1cnccn1)B(O)O [Bortezomib] (partner 0.002 µM)
Summed up: as §1

Compound in test [2]: C1=CC2=NC=CN=C2C=C1/C=C/3\C(=O)NC(=O)S3 + CC(C)C[C@H](NC(=O)[C@H](Cc1ccccc1)NC(=O)c1cnccn1)B(O)O [Bortezomib] (partner 0.002 µM)
Summed up: as §1

The text below walks through data of the supplement of paper PMC10307832.

Turning to NCI-H2342, the relative viability in the test with BGJ398 + AZD7762 (first compound 0.01 µM) came out at 0.513; with BGJ398 + AZD7762 (first compound 0.03162 µM) it was 0.565; with BGJ398 + AZD7762 (first compound 0.1 µM), 0.542; with BGJ398 + AZD7762 (first compound 0.3162 µM) it was 0.496; in the test with BGJ398 + AZD7762 (first compound 1 µM) it was 0.437.
SK-MES-1: the relative viability came out at 0.965 in test [1] (first compound 0.02 µM); 1.11 in test [1] (first compound 0.06325 µM); 1.02 in test [1] (first compound 0.2 µM); 0.981 in test [1] (first compound 0.6325 µM); 1 in test [1] (first compound 2 µM).
With HCC-366, the relative viability with BGJ398 + AZD7762 (first compound 0.01 µM) turned out to be 0.235; in the test with BGJ398 + AZD7762 (first compound 0.03162 µM), 0.301; with BGJ398 + AZD7762 (first compound 0.1 µM) it was 0.281; with BGJ398 + AZD7762 (first compound 0.3162 µM), 0.276; with BGJ398 + AZD7762 (first compound 1 µM), 0.252; in test [1] (first compound 0.02 µM) it was 0.441. For the same cell line, the relative viability in test [1] (first compound 0.06325 µM) came out at 0.306; in test [1] (first compound 0.2 µM), 0.605; in test [1] (first compound 0.6325 µM), 0.441; in test [1] (first compound 2 µM), 0.409; with BGJ398 + Bortezomib (first compound 0.01 µM), 1.07; with BGJ398 + Bortezomib (first compound 0.03162 µM), 1.1. Also, the relative viability with BGJ398 + Bortezomib (first compound 0.1 µM) is 1.15; with BGJ398 + Bortezomib (first compound 0.3162 µM) it was 1.09; in the test with BGJ398 + Bortezomib (first compound 1 µM) it was 0.991; in test [2] (first compound 0.02 µM), 1; in test [2] (first compound 0.06325 µM), 1.02; in test [2] (first compound 0.2 µM), 1.05. In addition, the relative viability worked out at 1.06 in test [2] (first compound 0.6325 µM) and 1.01 in test [2] (first compound 2 µM).
With 201T, the relative viability in the test with BGJ398 + AZD7762 (first compound 0.01 µM) was found to be 0.657; with BGJ398 + AZD7762 (first compound 0.03162 µM), 0.595; with BGJ398 + AZD7762 (first compound 0.1 µM), 0.63; with BGJ398 + AZD7762 (first compound 0.3162 µM) it was 0.521; with BGJ398 + AZD7762 (first compound 1 µM) it was 0.747; in test [1] (first compound 0.02 µM), 0.995. For the same cell line, the relative viability was 1.07 in test [1] (first compound 0.06325 µM); 1.06 in test [1] (first compound 0.2 µM); 0.994 in test [1] (first compound 0.6325 µM); 1.06 in test [1] (first compound 2 µM); 1.24 with BGJ398 + Bortezomib (first compound 0.01 µM); 1.08 with BGJ398 + Bortezomib (first compound 0.03162 µM). The relative viability in the test with BGJ398 + Bortezomib (first compound 0.1 µM) worked out at 1.11; in the test with BGJ398 + Bortezomib (first compound 0.3162 µM) it was 1.07; with BGJ398 + Bortezomib (first compound 1 µM), 1.04; in test [2] (first compound 0.02 µM), 0.979; in test [2] (first compound 0.06325 µM) it was 1.1; in test [2] (first compound 0.2 µM) it was 1.1. Moreover, the relative viability in test [2] (first compound 0.6325 µM) amounted to 1.08; in test [2] (first compound 2 µM), 1.03.
As for HCC-827, the relative viability with BGJ398 + AZD7762 (first compound 0.01 µM) turned out to be 0.26; with BGJ398 + AZD7762 (first compound 0.1 µM) it was 0.212; with BGJ398 + AZD7762 (first compound 0.3162 µM) it was 0.121; in the test with BGJ398 + AZD7762 (first compound 1 µM), 0.256; in test [1] (first compound 0.02 µM), 0.89; in test [1] (first compound 0.06325 µM), 0.905. Also, the relative viability in test [1] (first compound 0.2 µM) turned out to be 0.933; in test [1] (first compound 0.6325 µM) it was 0.804; in test [1] (first compound 2 µM) it was 1.03; with BGJ398 + Bortezomib (first compound 0.01 µM), 0.942; with BGJ398 + Bortezomib (first compound 0.03162 µM), 0.945; in the test with BGJ398 + Bortezomib (first compound 0.1 µM) it was 1.08. The relative viability is 0.972 in the test with BGJ398 + Bortezomib (first compound 0.3162 µM); 0.973 in the test with BGJ398 + Bortezomib (first compound 1 µM); 0.981 in test [2] (first compound 0.02 µM); 0.912 in test [2] (first compound 0.06325 µM); 1 in test [2] (first compound 0.2 µM); 1.05 in test [2] (first compound 0.6325 µM). Also, the relative viability in test [2] (first compound 2 µM) is 0.973.
Turning to NCI-H647, the relative viability was 0.642 with BGJ398 + AZD7762 (first compound 0.01 µM); 0.489 in the test with BGJ398 + AZD7762 (first compound 0.03162 µM); 0.497 with BGJ398 + AZD7762 (first compound 0.1 µM); 0.326 with BGJ398 + AZD7762 (first compound 0.3162 µM); 0.373 with BGJ398 + AZD7762 (first compound 1 µM); 0.989 in test [1] (first compound 0.02 µM). The relative viability in test [1] (first compound 0.06325 µM) was found to be 1.77; in test [1] (first compound 0.2 µM), 1.19; in test [1] (first compound 0.6325 µM), 1.03; in test [1] (first compound 2 µM), 1; with BGJ398 + Bortezomib (first compound 0.01 µM) it was 0.986; in the test with BGJ398 + Bortezomib (first compound 0.03162 µM), 1.12. The relative viability with BGJ398 + Bortezomib (first compound 0.1 µM) turned out to be 1.24; with BGJ398 + Bortezomib (first compound 0.3162 µM), 0.864; in the test with BGJ398 + Bortezomib (first compound 1 µM), 0.793; in test [2] (first compound 0.02 µM), 1.1; in test [2] (first compound 0.06325 µM) it was 1.16; in test [2] (first compound 0.2 µM), 1.11. Further, the relative viability in test [2] (first compound 0.6325 µM) was 0.72; in test [2] (first compound 2 µM) it was 0.951.
